Data on twelve compounds can be found in ChEMBL document CHEMBL1201862, “PubChem BioAssay data set” (2004).

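A five-concentration, 48-hour dose response in 96-well plates underlies each endpoint, interpolated linearly between surrounding concentrations. At the GI50, growth is halved.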 Calls of active or inactive are those of the source. Rule as the data show it: active = GI50 up to about 1.1 µM and inactive = higher. Some results are limits rather than exact numbers.

Test systems include HOP-62; SF-539; NCI/ADR-RES; EKVX; SF-268; SNB-75; MOLT-4; UACC-62; HOP-92; HT-29; PC-3; KM12; A498; A549; SK-MEL-28; HCT-15; DU-145.
Assay in all cases: NCI anticancer screen, dose series, 48 h

On to `COC(=O)/C=C1\C(=O)N(C(C)=O)c2ccc(Br)cc21`, for which the GI50 is 13.2 µM (inactive) in the experiment with HOP-62; 4.67 µM (inactive) in the experiment on SF-539; 11.7 µM (inactive) in the experiment with NCI/ADR-RES; 15.2 µM (inactive) in the experiment with EKVX; 7.46 µM (inactive) in the experiment with SF-268; 8.59 µM (inactive) in the experiment on SNB-75. The GI50 is 3.03 µM (inactive) in the experiment on MOLT-4; 11.6 µM (inactive) in the experiment with UACC-62; 13.6 µM (inactive) in the experiment on HOP-92; 8.87 µM (inactive) with HT-29; 8.75 µM (inactive) with PC-3; 14.3 µM (inactive) in the experiment on KM12. Also, the GI50 is 21.9 µM (inactive) with A498; 17.5 µM (inactive) in the experiment with A549; 14.5 µM (inactive) in the experiment with SK-MEL-28; 6.75 µM in the experiment on HCT-15; 12.8 µM (inactive) in the experiment on DU-145.

As for `CCOC(=O)[C@H]1C[C@]23CN(C(=O)OC(C)(C)C)CC[C@H]2CCC2(SCCCS2)[C@@H]3N1C`, the GI50 in the experiment with HOP-62 is 39.9 µM (inactive); in the experiment on SF-539, 29.6 µM (inactive); in the experiment on NCI/ADR-RES, 27.2 µM (inactive); in the experiment on EKVX it was 27.3 µM (inactive); in the experiment with SF-268 it was 50.4 µM (inactive); in the experiment on SNB-75, 72.9 µM (inactive). In addition, the GI50 with MOLT-4 was 24.3 µM (inactive); in the experiment on UACC-62, 40.5 µM (inactive); in the experiment with HOP-92, 14.1 µM (inactive); in the experiment with HT-29, 22.5 µM (inactive); in the experiment on PC-3 it was 25.2 µM (inactive); in the experiment with KM12, 33.3 µM (inactive). For the same compound, the GI50 with A498 was 52.2 µM (inactive); in the experiment with A549 it was 37.8 µM (inactive); with SK-MEL-28 it was 91 µM (inactive); in the experiment with HCT-15 it was 38.1 µM; in the experiment on DU-145, 54.3 µM (inactive).

For the compound `O=C1Oc2ccccc2C(=O)/C1=C\Nc1nc(-c2ccccc2)cs1`, the GI50 with HOP-62 was 23.4 µM (inactive); in the experiment on SF-539, 2.94 µM (inactive); in the experiment with NCI/ADR-RES it was 10.6 µM (inactive); in the experiment on EKVX, 19.5 µM (inactive); in the experiment with SF-268 it was 8.75 µM (inactive); in the experiment on SNB-75 it was 5.86 µM (inactive). For the same compound, the GI50 with MOLT-4 was 2.28 µM (inactive); in the experiment on UACC-62, 5.36 µM (inactive); with HOP-92, 11.1 µM (inactive); with HT-29 it was 5.21 µM (inactive); in the experiment on PC-3, 16.9 µM (inactive); in the experiment with KM12 it was 16.7 µM (inactive). The GI50 with A498 is 27.7 µM (inactive); in the experiment with A549 it was 31 µM (inactive); in the experiment on SK-MEL-28, 16.1 µM (inactive); in the experiment on DU-145 it was 15.3 µM (inactive).

On to `Cc1ccc2nc(N/N=C/c3cccc(C)n3)cc(C)c2c1`, for which the GI50 with HOP-62 is 16 µM (inactive); with SF-539, 17.8 µM (inactive); in the experiment with NCI/ADR-RES, 16.2 µM (inactive); with EKVX, 16.6 µM (inactive); with SF-268, 17.2 µM (inactive); in the experiment with SNB-75, 19.7 µM (inactive). Further, the GI50 was 15.2 µM (inactive) with UACC-62; 17.6 µM (inactive) in the experiment with HOP-92; 12.3 µM (inactive) in the experiment on HT-29; 17.7 µM (inactive) in the experiment on PC-3; 12.7 µM (inactive) in the experiment with KM12; 17.9 µM (inactive) in the experiment on A498. Besides, the GI50 in the experiment on A549 is 16 µM (inactive); with SK-MEL-28, 17.1 µM (inactive); with HCT-15, 14.2 µM; in the experiment with DU-145 it was 17.3 µM (inactive).

Regarding `CCCCCCCCCCCCCCCCCCOP1(=O)OCCO1`, the GI50 was 79.1 µM (inactive) in the experiment with HOP-62; > 100 µM (inactive) in the experiment on SF-539; > 100 µM (inactive) in the experiment with NCI/ADR-RES; > 100 µM (inactive) with EKVX; > 100 µM (inactive) in the experiment with SNB-75; 40.7 µM (inactive) with MOLT-4. The GI50 is > 100 µM (inactive) with UACC-62; > 100 µM (inactive) in the experiment with HOP-92; > 100 µM (inactive) with HT-29; 22.8 µM (inactive) with PC-3; > 100 µM (inactive) in the experiment on KM12; > 100 µM (inactive) in the experiment on A498. Moreover, the GI50 with A549 was 79.4 µM (inactive); in the experiment with SK-MEL-28, > 100 µM (inactive); with HCT-15, 39.9 µM; with DU-145, > 100 µM (inactive).

Regarding `NC1=NCC(CN2CCOCC2)O1` (stereo unspecified), the GI50 in the experiment with HOP-62 is > 100 µM (inactive); with SF-539 it was > 100 µM (inactive); in the experiment with NCI/ADR-RES it was > 100 µM (inactive); in the experiment on EKVX it was > 100 µM (inactive); in the experiment on SF-268, > 100 µM (inactive); in the experiment on SNB-75, 62.2 µM (inactive). Also, the GI50 with MOLT-4, in the experiment on UACC-62, with HOP-92, in the experiment with HT-29, in the experiment on PC-3 and in the experiment on KM12 was > 100 µM (inactive) each time. The GI50 with A498 is > 100 µM (inactive); with A549, > 100 µM (inactive); in the experiment with SK-MEL-28, > 100 µM (inactive); in the experiment on HCT-15, > 100 µM; in the experiment on DU-145 it was > 100 µM (inactive).

Regarding `O=P(Oc1ccccc1)(Oc1ccccc1)Oc1c[nH]c2ccccc12`, the GI50 was 14.9 µM (inactive) with HOP-62; 11.4 µM (inactive) with SF-539; 3.45 µM (inactive) in the experiment with NCI/ADR-RES; 0.296 µM (active) in the experiment with EKVX; 11.1 µM (inactive) with SF-268; 10.8 µM (inactive) in the experiment on SNB-75. Also, the GI50 is 6.53 µM (inactive) in the experiment with MOLT-4; 8.97 µM (inactive) in the experiment with UACC-62; 1.57 µM (inactive) with HOP-92; 6.07 µM (inactive) in the experiment on HT-29; 0.847 µM (active) in the experiment with PC-3; 19.4 µM (inactive) with KM12. Further, the GI50 was 14.1 µM (inactive) in the experiment on A498; 11.1 µM (inactive) in the experiment with A549; 12.7 µM (inactive) with SK-MEL-28; 12.8 µM in the experiment on HCT-15; 36.6 µM (inactive) in the experiment with DU-145.

Consider `C=C1c2ccccc2Oc2nc3nc(N)c(C#N)c(N)c3c(N)c21`, for which the GI50 in the experiment on HOP-62 was 19.1 µM (inactive); in the experiment with SF-539 it was 20 µM (inactive); with NCI/ADR-RES, 28.4 µM (inactive); in the experiment with EKVX it was 11.9 µM (inactive); in the experiment with SF-268, 21.6 µM (inactive); in the experiment on SNB-75, 24.5 µM (inactive). The GI50 was 23.7 µM (inactive) in the experiment with MOLT-4; 35.7 µM (inactive) with UACC-62; 55.2 µM (inactive) in the experiment with HOP-92; 23.1 µM (inactive) in the experiment on HT-29; 19.3 µM (inactive) in the experiment with PC-3; 18.6 µM (inactive) with KM12. The GI50 in the experiment on A498 was > 100 µM (inactive); in the experiment with A549, 30.1 µM (inactive); with SK-MEL-28, 41.8 µM (inactive); in the experiment with HCT-15, 16.9 µM; in the experiment on DU-145 it was 43.7 µM (inactive).

Regarding `CN(C)c1ccc(/C=C2\C[C@H]3[C@@H]4CC=C5C[C@@H](N6CCCC6)CC[C@]5(C)[C@H]4CC[C@]3(C)[C@H]2O)cc1`, the GI50 in the experiment on HOP-62 is 1.71 µM (inactive); in the experiment on SF-539 it was 3.78 µM (inactive); in the experiment with NCI/ADR-RES it was 1.62 µM (inactive); in the experiment on EKVX it was 1.83 µM (inactive); in the experiment with SF-268 it was 0.989 µM (active); with SNB-75, 0.959 µM (active). Further, the GI50 was 1.82 µM (inactive) in the experiment with MOLT-4; 0.871 µM (active) in the experiment on UACC-62; 2.47 µM (inactive) in the experiment on HOP-92; 1.1 µM (active) in the experiment with HT-29; 2.18 µM (inactive) in the experiment with PC-3; 2.24 µM (inactive) with KM12. The GI50 is 1.01 µM (active) in the experiment on A498; 1.36 µM (inactive) in the experiment on A549; 0.977 µM (active) in the experiment on SK-MEL-28; 1.57 µM in the experiment on HCT-15; 3.05 µM (inactive) in the experiment with DU-145.

Regarding `COc1ccc(NC(=O)CC(=O)N2N=C(c3ccccc3)C(/N=N/c3ccc(S(=O)(=O)CCOS(=O)(=O)O)cc3)C2=O)cc1` (stereo unspecified), the GI50 in the experiment with HOP-62, with SF-539, in the experiment on NCI/ADR-RES, with EKVX, in the experiment with SF-268 and with SNB-75 was > 100 µM (inactive) each time. The GI50 in the experiment with MOLT-4, in the experiment with UACC-62, with HOP-92, with HT-29, in the experiment on PC-3 and in the experiment with KM12 was > 100 µM (inactive) throughout. Also, the GI50 was > 100 µM (inactive) with A498; > 100 µM (inactive) with A549; > 100 µM (inactive) in the experiment with SK-MEL-28; > 100 µM in the experiment with HCT-15; > 100 µM (inactive) in the experiment with DU-145.

In the case of `CCCCCCCCCC(=O)NCCc1c[nH]c2ccc(OC)cc12`, the GI50 in the experiment with HOP-62 was 16.4 µM (inactive); with SF-539, 23.2 µM (inactive); in the experiment with NCI/ADR-RES, 19.2 µM (inactive); in the experiment on EKVX, 28 µM (inactive); with SF-268, 17.7 µM (inactive); in the experiment with SNB-75, 20.6 µM (inactive). The GI50 is 64.7 µM (inactive) in the experiment with MOLT-4; 16.3 µM (inactive) with UACC-62; 16.2 µM (inactive) in the experiment on HOP-92; 23.2 µM (inactive) in the experiment on HT-29; 15.3 µM (inactive) in the experiment on PC-3; 27.9 µM (inactive) with KM12. Moreover, the GI50 was 16.3 µM (inactive) in the experiment with A498; 19 µM (inactive) with A549; 17.9 µM (inactive) in the experiment on SK-MEL-28; 19.1 µM in the experiment with HCT-15; 20.2 µM (inactive) in the experiment with DU-145.

For `Clc1n[nH]c2ccccc12`, the GI50 in the experiment with HOP-62 is > 100 µM (inactive); in the experiment on SF-539 it was > 100 µM (inactive); with NCI/ADR-RES, > 100 µM (inactive); in the experiment on EKVX, 86.5 µM (inactive); in the experiment with SF-268 it was > 100 µM (inactive); in the experiment with SNB-75, > 100 µM (inactive). The GI50 in the experiment with MOLT-4, in the experiment on UACC-62, with HOP-92, in the experiment on HT-29, in the experiment with PC-3 and with KM12 was > 100 µM (inactive) in each case. The GI50 with A498 is > 100 µM (inactive); in the experiment with A549, > 100 µM (inactive); in the experiment on SK-MEL-28, > 100 µM (inactive); in the experiment on HCT-15, > 100 µM; in the experiment with DU-145, > 100 µM (inactive).
